Experimental findings from patent US20040266749A1, “Methods for cystic fibrosis disease assessment and methods for treating anaerobic P. aeruginosa biofilms in cystic fibrosis disease” (priority 2002, published 2004) are described below.

The assay relates to P. aeruginosa rhlR mutant anaerobic biofilm. The assay is described as follows: Anaerobic biofilm protection of rhlR mutant bacteria by carboxy-PTIO (confocal LIVE/DEAD viability). It is filed as cell-based, Pseudomonas aeruginosa. The conditions noted are these: 5 mM carboxy-PTIO. The protocol:
(b) Confocal examination of biofilms. For biofilm architecture examination, circular coverslips are glued to the bottom of 35×10 mm polystyrene tissue culture dishes with small holes in the base (Falcon). The plates are sterilized overnight by UV irradiation. Three ml of aerobic L-broth, aerobic LBN or anaerobic LBN is inoculated with ˜10^7 CFU of overnight L-broth grown culture. After 24 hr at 37° C., biofilms are washed with saline and stained with 0.5 ml of a LIVE/DEAD BacLight bacterial viability stain (Molecular Probes, Inc., Eugene, Oreg.). Images are acquired on a Zeiss LSM 510 laser scanning confocal unit attached to an Axiovert microscope using a 63×1.4 NA oil immersion objective. For two color images, samples are scanned sequentially at 488 nm and 546 nm. Syto 9 (green fluorescence) is detected through a 505-530 nm bandpass filter and propidium iodine (red fluorescence) is detected through a 560 nm longpass filter and presented in two channels of a 512×512 pixel, 8-bit image.
(a) Anaerobic biofilm protection by 2-(4-Carboxyphenyl)-4,4,5,5-tetramethylimidazoline-1-oxyl-3-oxide (carboxy-PTIO). Biofilms of rhlR mutant bacteria are grown anaerobically in the presence vs. absence of 5 mM carboxy-PTIO (Molecular Probes, Eugene, Oreg.), an NO scavenger. […]

Each structure is given as a SMILES string.

`CC1(C)N([O])C(c2ccc(C(=O)O)cc2)=[N+]([O-])C1(C)C` [carboxy-PTIO, 2-(4-Carboxyphenyl)-4,4,5,5-tetramethylimidazoline-1-oxyl-3-oxide]: where the note is “anaerobic rhlR mutant biofilm, sagittal sectioning, FIG. 3B line 2 vs. 1”, the “Biofilm zone in which protection is primarily observed (top of the biofilm)” value is 10-15 μm. Moreover, the “Protection of anaerobic rhlR mutant biofilm bacteria from cell death (viability)” value (rhlR mutant grown anaerobically as biofilm, FIG. 3A panels 2 vs. 1) is “protected the rhlR mutant”.
